Test results reported in patent publication US5504097A, “N-hydroxyureas as 5-lipoxygenase inhibitors and inhibitors of oxidative modification of low density lipoprotein” (American Home Products Corporation, priority 1995, dated 1996).

What was measured:
[1] = molecular target: T1, 5-Lipoxygenase (Homo sapiens, UniProt P09917); assay: Inhibition of 5-Lipoxygenase in Human Whole Blood (LTB4, calcium ionophore A23187); format: cell-based
T1 construct: from tissue; host or cells: whole blood of male human donors (endogenous enzyme of the leukocytes)
T1 sequence (P09917 1-674): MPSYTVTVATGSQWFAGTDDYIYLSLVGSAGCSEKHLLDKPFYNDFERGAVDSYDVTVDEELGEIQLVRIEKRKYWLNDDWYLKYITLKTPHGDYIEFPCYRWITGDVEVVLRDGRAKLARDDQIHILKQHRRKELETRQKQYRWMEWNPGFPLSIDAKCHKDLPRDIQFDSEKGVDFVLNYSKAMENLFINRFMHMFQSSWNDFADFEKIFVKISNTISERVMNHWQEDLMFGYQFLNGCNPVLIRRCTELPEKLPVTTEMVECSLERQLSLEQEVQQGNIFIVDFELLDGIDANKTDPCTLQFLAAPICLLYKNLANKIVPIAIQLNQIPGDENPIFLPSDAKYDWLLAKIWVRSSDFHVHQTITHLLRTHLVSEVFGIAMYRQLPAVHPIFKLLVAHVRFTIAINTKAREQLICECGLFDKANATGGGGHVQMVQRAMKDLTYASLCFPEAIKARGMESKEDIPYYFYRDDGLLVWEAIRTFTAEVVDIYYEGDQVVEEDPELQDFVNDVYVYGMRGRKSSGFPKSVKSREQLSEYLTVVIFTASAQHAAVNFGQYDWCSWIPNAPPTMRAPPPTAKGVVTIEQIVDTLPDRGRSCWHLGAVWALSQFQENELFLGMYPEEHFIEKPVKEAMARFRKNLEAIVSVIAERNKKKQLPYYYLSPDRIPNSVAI
Protocol: 1. Inhibition of 5-Lipoxygenase in Human Whole Blood
Blood is obtained in 50-100 ml quantities from male donors. White blood cell counts and differentials are made. Two ml of blood are placed in a 15 ml polypropylene test tube. Test compounds are solubilized in dimethylsulfoxide and diluted in 1:10 in 10% bovine serum albumin in phosphate buffered saline, pH 7.4 resulting in a final dimethylsulfoxide concentration of 0.1% in the blood. Then, solutions of test compounds are added to the blood in a shaking water bath at 37° C. for 10 minutes prior to the addition of 30 μM calcium ionophore (A23187, Sigma). After ionophore administration, whole blood samples are mixed and incubated for 20 minutes at 37° C. in a shaking water bath. Incubation is terminated by placing samples in an ice bath and immediately adding ethylene glycol-bis-(β-aminoethyl ether)-N, N,N',N'-tetraacetic acid (10 mM). Samples are mixed and centrifuged at 1200× g for 15 minutes at 4° C. Preparation of samples for evaluation by RIA or ELISA is carried out by the following protocol. Plasma is removed from sample tubes, placed in 15 ml polypropylene test tubes containing 8 ml methanol, and then vortexed to precipitate protein. Samples are stored at -70° C. overnight. The next day, samples are centrifuged at 200× g for 15 minutes at 4° C. to pellet the precipitate. Samples are dried in a Savant SpeedVac Concentrator, Model SVC 200H, reconstituted to original volume with ice cold RIA or ELISA buffer, and stored at -70° C. until assayed. The assay for eicosanoids (LTB4, T×B2, and PGE2) is performed as described by the manufacturer of the ^3 H!-RIA kit or ELISA kit (LTB4 -Amersham, T×B2 and PGE2 -Caymen Chemical).
The total eicosanoid level in 2 ml of blood is calculated and reported as ng/10^6 neutrophils. Significance is determined by a one-way analysis of variance with least significant difference (LSD) comparisons to control (p≤0.05) and IC50 's (μM) are determined by regression analysis (Finney, 1978). Drug effects are expressed as percent change from control values.

[2] = test system: Lipoxygenase; assay: Ex-Vivo Measurement of Lipoxygenase Inhibition in Orally Dosed Rats (LTB4 in A23187-stimulated blood); parameters: species or system Male Sprague Dawley rats; conditions: 10 mg/kg, p.o.
Protocol: 2. Ex-Vivo Measurement of Lipoxygenase Inhibition in Orally Dosed Rats
After an interval of 3 or 6 hours, the rats were anesthetized with metofane (n=4/group) and blood collected in heparinized tubes. White blood cell counts and differentials were made. One ml of blood from each animal was placed in a 5 ml plastic tube in a shaker bath at 37° C. A23187 at a final concentration of 10 μM was added to the blood and the blood vortexed and incubated for 15 min at 37° C. with gentle shaking. Incubation was terminated by vortexing sample and centrifuging immediately at 1200× G for 15 min at 4° C. The plasma was transferred to 15 ml plastic tubes each containing 8 ml of methanol to precipitate protein followed by vortexing. The samples were stored at -70° C. overnight and the next day the samples were centrifuged at 800× G for 15 min to pellet the precipitate. The samples were dried in a Savant SpeedVac Concentrator Model SVC 200H and reconstituted to the original volume with cold RIA or ELISA buffer. The reconstituted samples were stored at -70° C. until assayed. The assay for LTB4 was performed according to the directions of the ^3 H!RIA kit or ELISA kit (Seragen). The total metabolite level in 1 ml of blood is calculated and reported as ng/10^6 neutrophils. Significance is determined by a one-way analysis of variance with LSD comparisons to control (p≤0.05).

[3] = test system: Low Density Lipoprotein; assay: Inhibition of Copper Ion Mediated Oxidation of Low Density Lipoprotein; format: biochemical; conditions: Cu^+2 mediated oxidation of rabbit or monkey LDL
Protocol: 5. Inhibition of Copper Ion Mediated Oxidation of Low Density Lipoprotein
In this in vitro assay, the inhibition of Cu^+2 mediated oxidation of rabbit or monkey LDL by an invention compound is determined spectrophotometricallly. Oxidation of LDL results in the formation of LDL-diene which absorbs light at 532 nm. Inhibition of oxidation of LDL leads to a decrease in absorbance at 532 nm.
Rabbit or monkey LDL is prepared according to the procedures of Havel, Eder and Gragdon, "The Distribution and Chemical Composition of Ultracentrifugally Separated Lipoproteins in Human Serum,: J, Clin. Invest. 34, 1345-1353 (1955) and Parhtasarathy, Wieland and Steriberg, "A Role for Endothelial Cell Lipoxygenase in the Oxidative Modification of Low Density Lipoprotein," Proc, Natl. Acad. Sci. USA 86, 1046-1050 (1989). Test compound solutions are prepared by dissolving the invention compounds in ethanol at concentrations up to 248 μM. The medium used is Dulbecco's phosphate buffered saline containing 0.5 mg/ml bovine serum albumin. For standards, 0 to 10 μl of an aqueous solution of 1,1,3,3-tetraethoxypropane (1 μmol/ml H2 O) in 4.1 ml of medium is used.
Test compound solution (100 μl) is added to 4 ml of medium in incubation tubes. To each tube is added 10 μl of LDL solution and 25 μl of aqueous copper sulfate solution (1.32 mg/ml H2 O ). The tubes are incubated at 37° C. for 90 minutes and the oxidation reaction quenched by addition of 1 ml of thiobarbituric acid solution (0.67% in 50% acetic acid). The tubes are heated at 90° C. for 1 hour, then chilled in an ice bath and the chromophore extracted into 2 ml of n-butanol. Absorbence is read at 532 nm and the results are reported as nmols of malondialdehyde equivalents.
Significant differences (p<0.05) are determined by the Dunnett T-test or by the Student-Newman-Keuls Test for significant differences between means. The assay is conducted using several concentrations I! of the inhibitor test compounds. The LDL solution concentrations at different experiments were either 1.5 mg/ml, 2.5 mg/ml or 10.3 mg/ml. The IC50 is determined by non-linear regression, plotting log I! vs. % inhibition. (Reference: K. Yagi, Biochemical Medicine 15, 212-216 (1976)).

[4] = test system: LTB4; assay: Reverse Passive Arthus Reaction (pleurisy), LTB4 in pleural exudate; format: in vivo, male Lewis rats; conditions: 25 mg/kg, p.o.
Protocol: 3. Reverse Passive Arthus Reaction
A reverse passive Arthus reaction is induced in the pleural cavity of male Lewis rats (150-200 g; fasted overnight prior to use) by the intravenous administration of bovine serum albumin (BSA; 4 mg/0.2 ml) followed 30 minutes later by the injection of rabbit anti-BSA (1 mg/2.0 ml; lyophilized IgG fraction; Organon Teknika, West Chester, Pa.) into the right pleural space under halothane anesthesia. Drugs or vehicle (0.5% Tween-80) control are administered orally in a volume of 1 ml/100 g body weight at 1 hour prior to the anti-BSA. Animals are sacrificed at either the time of peak eicosanoid production (i.e. 5 minutes after anti-BSA for immunoreactive T×B2, 10 minutes for immunoreactive LTB4, 20 minutes for immunoreactive LTC4) or at the time of peak neutrophil infiltration (4 hours after anti-BSA) by CO2 inhalation. The pleural cavity is then exposed, the fluid exudate removed by gentle vacuum aspiration and the volume of exudate is recorded. For the determination of cellular infiltration, the pleural cavity is rinsed with 3 ml of 0.1% EDTA in sterile saline, and the recovered wash is pooled with the exudate. Cell number is determined on a model ZBI Coulter counter. For determination of eicosanoid production, undiluted pleural exudate is microfuged and the supernatant is extracted with ethanol (8-10 times volume). Extracts are either stored at -20° C., or are evaporated to dryness under a stream of N2 and reconstituted in radioimmunoassay (RIA) buffer.
Eicosanoids are quantitated by RIA according to the procedure specified by the RIA kit manufacturer (Advanced Magnetics, Cambridge, MA). Briefly, 100 μl of ^3 H-labeled eicosanoid and 100 μl of specific antibody are sequentially added to 100 μl of extracted pleural exudate in BGG-phosphate buffer which contains 0.01M phosphate, 0.1% bovine gamma globulin and 0.1% sodium azide at pH 7.0. Antibody-bound eicosanoid is separated from unbound eicosanoid by the addition of 750 μl of dextran (0.4%)-coated charcoal (Norit A) containing 0.1% sodium azide. The mixture is centrifuged at 2000 RPM at 5° C. for 15 minutes to pellet the charcoal and adsorbed unbound eicosanoid. Antibody-bound labeled eicosanoid is quantitated by counting in a liquid scintillation counter, and is correlated to concentration by a standard curve.

[5] = test system: LDL; conditions: in words; cited from earlier work
[6] = test system: LDL; conditions: in words; cited from earlier work; remark: listed apart in the source
[7] = test system: atherosclerotic lesions; conditions: WHHL rabbits, in words; cited from earlier work

| Compound | inhibition at 1 µM [1] [%] | IC50 [3] [nM] | inhibition at 10 µM [1] [%] | % Inhibition of LTB4 ([2]; pretreatment period 3 hr) [%] | % Inhibition of LTB4 ([2]; pretreatment period 6 hr) [%] | % Inhibition of LTB4 Synthesis [4] [%] | other results |
| --- | --- | --- | --- | --- | --- | --- | --- |
| Cc1oc(-c2ccccc2)nc1COc1ccc(CN(O)C(N)=O)cc1Cl [Example 2, 1-3-Chloro-4-(5-methyl-2-phenyl-oxazol-4-ylmethoxy)-benzyl!-1-hydroxy-urea] | 31 | 560 | – | 68 | 72 | – | – |
| NC(=O)N(O)Cc1ccc(OCc2csc(-c3ccc(Cl)cc3)n2)cc1 [Example 14, 1-4-2-(4-chloro-phenyl)-thiazol-4-ylmethoxy!-benzyl!-1-hydroxy-urea] | 71 | 1100 | – | – | – | – | – |
| CC(C)(Sc1cc(C(C)(C)C)c(O)c(C(C)(C)C)c1)Sc1cc(C(C)(C)C)c(O)c(C(C)(C)C)c1 [Probucol] | – | – | – | – | – | – | inhibition of cell mediated oxidative modification of LDL [5]: inhibits; inhibition of Cu^+2 mediated oxidative modification of LDL [6]: inhibits; inhibition of formation of atherosclerotic lesions [7]: inhibit the formation of atherosclerotic lesions |

Second part, led by results:

| inhibition at 1 µM [1] [%] | IC50 [3] [nM] | inhibition at 10 µM [1] [%] | Compound | % Inhibition of LTB4 ([2]; pretreatment period 3 hr) [%] | % Inhibition of LTB4 ([2]; pretreatment period 6 hr) [%] | % Inhibition of LTB4 Synthesis [4] [%] | other results |
| --- | --- | --- | --- | --- | --- | --- | --- |
| – | – | 80 | Cc1oc(-c2ccccc2)nc1COc1ccc(CN(O)C(N)=O)c(Cl)c1 [Example 3, 1-2-Chloro-4-(5-methyl-2-phenyl-oxazol-4-ylmethoxy)-benzyl!-1-hydroxy-urea] | 40 | – | 26 | – |
| – | 810 | 81 | COc1cc(CN(O)C(N)=O)ccc1OCc1nc(-c2ccccc2)oc1C [Example 4, 1-Hydroxy-1-3-methoxy-4-(5-methyl-2-phenyl-oxazol-4-ylmethoxy)-benzyl!-urea] | – | – | – | – |
| 47 | – | – | Cc1oc(-c2ccccc2)nc1COc1ccc(CN(O)C(N)=O)cc1F [Example 5, 1-3-Fluoro-4-(5-methyl-2-phenyl-oxazol-4-ylmethoxy)-benzyl!-1-hydroxy-urea] | 66 | 68 | 28 | – |
